According to patent US9387213B2, “Small molecules inhibiting oncoprotein Myc” (Health Research, Inc., priority 2012, dated 2016):

Columns and labels:
[1] = system: HO-null cells; experiment: Secondary filter for Myc specificity: cell growth inhibition, methylene blue staining; format: cell-based; details: Rattus norvegicus, 72 h, read-out: ID50 HO-null
Protocol: (§1) FIG. 4 illustrates the myc specificity of tested compounds. Rat1a cells expressing c-myc, L-myc or N-myc or lacking any Myc (null) were treated for 72 h with a range of hit compound concentrations. The cells were then fixed and stained with methylene blue and the percentage of cells in the presence of compound compared to DMSO only control was calculated.
(§2) Validated hits were divided into classes when two or more compounds shared significant structural similarity. The ID50 for N-myc transactivation (the inhibitory dose resulting in 50% decrease in luciferase activity) for each hit was calculated from the dose-response N-myc responsive reporter assay. Compounds within each class were ranked by their ID50 for N-myc transactivation and the best compounds within each class were chosen for further studies. In addition, the best of the structurally unique compounds were also analyzed. A total of 46 hits were passed through a secondary filter designed to determine the specificity of the hits for Myc proteins. For this filter, we used a panel of cell lines derived from Rat1a cells (kindly provided by Michael Cole, Dartmouth University): HO-null-c-Myc deficient cells due to homologous recombination that express neither N-myc nor L-myc HO-c-Myc, HO-L-myc and HO-N-myc derived by retroviral transduction of the corresponding Myc genes into HO-null cells. Since each cell line expresses only a single Myc or no Myc family members, we could identify compounds that act through Myc family members as well as which Myc family members. […] The 18 Myc-specific compounds identified during the screening and filtering process are presented in Table 1 and represent distinct classes of molecules, including pyrazoles (e.g., N147A7, N47E10, N147G5), tetrazoles (e.g., N77A7) and 3-bromophenol (e.g., N4G6).

[2] = system: panel of tumor cell lines, including neuroblastoma and melanoma; experiment: Effect of Myc inhibitors against panel of tumor cell lines, growth/viability by MTS and resazurin; format: cell-based, human; details: neuroblastoma lines IMR32, NBL-WN, 72 h
Protocol: FIG. 6 illustrates putative Myc inhibitors that are efficacious against tumor but not normal cells. Melanocytes and melanoma (#3 and #10) (A) and neuroblastoma (B) were incubated in the continuous presence of Myc inhibitors for 72 h and cell growth/viability determined by standard MTS and resazurin methods, respectively. Data for three hits is presented as a percent of DMSO vehicle control.

[3] = system: HO-c-Myc cells; experiment: Secondary filter for Myc specificity: cell growth inhibition, methylene blue staining; format: cell-based, rat
Protocol: as §1, §2

[4] = system: HO-N-myc cells; experiment: as above; format: cell-based, rat
Protocol: as §1, §2

[5] = system: SK-Mel-103; experiment: Suppression of proliferation / senescence induction in melanoma line; format: cell-based; details: Homo sapiens
Excerpt: (§3) 260 analogs of N77A7 were selected from several commercially available libraries of small molecules based on the structural similarities with N77A7. The compounds were screened for the ability to permanently suppress proliferation and induce senescence in cells from melanoma lines SK-Mel-19 and SK-Mel-103. Based on the above-described screening procedure, seven small molecules were identified as having IC50 values lower than that of N77A7.

[6] = system: SK-Mel-19; experiment: as above; format: cell-based; details: Homo sapiens, SK-MEL19
Excerpt: as §3

[7] = in vitro; details: microsomes, pH 7.4; for Percent Remaining 0 min: 0 h; for Percent Remaining 0 min / Percent Remaining 10 min / Percent Remaining 20 min / Percent Remaining 30 min / Percent Remaining 60 min: 1 μM; for Percent Remaining 30 min: 0.5 h; for Percent Remaining 60 min: 1 h
Protocol: Additionally, several of the N77A7 analogs were subjected to the test for the metabolic stability in human and mouse liver microsomes. Briefly, 1 μM of test compound was incubated with microsomal protein (human liver microsomes: 0.5 mg/mL; mouse liver microsomes 0.5 mg/mL) and buffer (100 mM potassium phosphate, pH 7.4, 5 mM magnesium chloride). The positive control was 5 μM testosterone. The reaction was equilibrated at 37 C in a shaking water bath for 3 to 5 minutes. After equilibration, an aliquot was removed and combined with 50/50 acetonitrile/water containing 0.1% formic acid and internal standard to terminate the reaction. 1 mM NADPH was immediately added and the tube was returned to the water bath. Five sample time points were taken (0, 10, 20, 30, and 60 minutes). Aliquots were removed and combined with 50/50 acetonitrile/water containing 0.1% formic acid and internal standard to terminate the reaction. The samples were mixed for 10 minutes and centrifuged. The supernatant from each sample was diluted (if necessary) and then transferred to vials for analysis by LC-MS/MS for the test compound and internal standard without calibration standards. The percent remaining at each time point was determined by the test compound's peak area response ratio versus the 0 minute sample.

Compound | IC50 [5] [nM] | IC50 [6] [nM] | Percent Remaining 0 min ([7]; human) [%] | Percent Remaining 10 min ([7]; human) [%] | Percent Remaining 20 min ([7]; human) [%] | Percent Remaining 30 min ([7]; human) [%] | Percent Remaining 60 min ([7]; human) [%] | half-life at 1 µM ([7]; human) [min] | microsomal CLint at 1 μM ([7]; human) [µL/min/mg] | Percent Remaining 0 min ([7]; mouse) [%] | Percent Remaining 10 min ([7]; mouse) [%] | Percent Remaining 20 min ([7]; mouse) [%] | Percent Remaining 30 min ([7]; mouse) [%] | Percent Remaining 60 min ([7]; mouse) [%] | half-life at 1 µM ([7]; mouse) [min] | microsomal CLint at 1 μM ([7]; mouse) [µL/min/mg] | further results
COCc1cc(CN(C)C2CCCCC2)c(O)c2ncccc12 [Compound N269D8] |  |  |  |  |  |  |  |  |  |  |  |  |  |  |  |  | IC50 [1]: 4520 nM; toxicity to N-myc amplified lines versus SH-EP cells [2]: more toxic to the N-myc amplified cell lines, IMR32 and NBL-WN than to SH-EP cells; Myc Index C ([3]; ID50 in HO-null cells divided by ID50 in HO-c-myc cells): 6.3; IC50 ([3]; Rattus norvegicus, cell growth inhibition, 72 h, methylene blue, read-out: ID50 HO-c-myc): 720 nM; Myc Index N ([4]; ID50 in HO-null cells divided by ID50 in HO—N-myc cells): 5.3; IC50 ([4]; Rattus norvegicus, cell growth inhibition, 72 h, methylene blue, read-out: ID50 HO—N-myc): 850 nM
CCN(CC)c1ccc(/C=N/NC(=O)c2cc(C)n[nH]2)c(O)c1 [Compound 3] | 500 | 500 | 100 | 93 | 66 | 49 | 24 | 29.5 | 47 | 100 | 39 | 12 | 3.7 | <1.0 | 7 | 200 | 
CCCN(CCC)Cc1c(C(=O)N/N=C/c2ccc(N(CC)CC)cc2O)nnn1-c1nonc1N [Compound 7] | 250 | 350 | 100 | 46 | 25 | 20 | 11 | 10.7 | 130 | 100 | 26 | 7.1 | 3.8 | 1.4 | 5.2 | 270 | 
